In patent US20250368649A1, “TETRAHYDROPYRIDOPYRIMIDINE PAN-KRAS INHIBITORS” (Mirati Therapeutics, Inc., priority 2022, published 2025):

Tests used:
[1] = biological target: KRas G12A (Homo sapiens, UniProt P01116, G12A); format: binding; conditions: TR-FRET displacement, read-out: Binding to KRas (IC50 nM) G12A
[2] = biological target: KRas Q61H (Homo sapiens, UniProt P01116, Q61H); assay: KRas binding assay (TR-FRET displacement), KRas Q61H; conditions: TR-FRET displacement
[3] = biological target: KRas G13D (Homo sapiens, UniProt P01116, G13D); format: binding; conditions: TR-FRET displacement, read-out: Binding to KRas (IC50 nM) G13D
KRas G13D, sequence (P01116 1-169 isoform P01116-2 G13D): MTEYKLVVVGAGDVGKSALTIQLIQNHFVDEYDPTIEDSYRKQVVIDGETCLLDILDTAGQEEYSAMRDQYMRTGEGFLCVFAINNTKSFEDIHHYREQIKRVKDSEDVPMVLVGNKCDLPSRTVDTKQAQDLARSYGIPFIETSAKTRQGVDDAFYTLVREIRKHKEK

[4] = biological target: KRas G12S (Homo sapiens, UniProt P01116, G12S); format: binding; conditions: TR-FRET displacement, read-out: Binding to KRas (IC50 nM) G12S
KRas G12S, sequence (P01116 1-169 isoform P01116-2 G12S): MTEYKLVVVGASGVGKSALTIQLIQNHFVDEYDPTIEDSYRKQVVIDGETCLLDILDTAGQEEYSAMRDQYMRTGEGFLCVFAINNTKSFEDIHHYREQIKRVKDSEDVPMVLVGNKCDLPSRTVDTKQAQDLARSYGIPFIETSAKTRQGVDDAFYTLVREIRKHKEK

[5] = biological target: KRas WT (Homo sapiens, UniProt P01116); assay: KRas binding assay (TR-FRET displacement), KRas WT; conditions: TR-FRET displacement
KRas WT, sequence (P01116 1-169 isoform P01116-2): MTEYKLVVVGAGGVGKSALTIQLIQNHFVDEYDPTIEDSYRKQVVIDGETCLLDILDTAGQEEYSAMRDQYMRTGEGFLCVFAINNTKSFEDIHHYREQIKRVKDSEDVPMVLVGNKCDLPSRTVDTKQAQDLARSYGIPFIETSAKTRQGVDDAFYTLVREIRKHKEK

[6] = biological target: KRas G12D (Homo sapiens, UniProt P01116, G12D); assay: biochemical; conditions: Binding to KRas (IC50 nM) G12D, TR-FRET displacement, KRas G12D
KRas G12D, sequence (P01116 1-169 isoform P01116-2 G12D): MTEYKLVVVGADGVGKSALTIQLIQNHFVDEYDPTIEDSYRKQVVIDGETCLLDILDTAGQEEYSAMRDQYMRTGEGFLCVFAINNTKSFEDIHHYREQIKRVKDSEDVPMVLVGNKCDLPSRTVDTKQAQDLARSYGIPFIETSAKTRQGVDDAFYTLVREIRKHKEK

[7] = biological target: KRas G12C (Homo sapiens, UniProt P01116, G12C); format: binding; conditions: TR-FRET displacement, read-out: Binding to KRas (IC50 nM) G12C
KRas G12C, sequence (P01116 1-169 isoform P01116-2 G12C): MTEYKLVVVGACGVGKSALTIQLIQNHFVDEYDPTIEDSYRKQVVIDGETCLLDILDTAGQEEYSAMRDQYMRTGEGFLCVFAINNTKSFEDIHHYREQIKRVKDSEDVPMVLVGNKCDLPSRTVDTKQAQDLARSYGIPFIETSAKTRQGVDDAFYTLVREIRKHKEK

[8] = biological target: KRas G12V (Homo sapiens, UniProt P01116, G12V); assay: biochemical; conditions: Binding to KRas (IC50 nM) G12V, TR-FRET displacement, KRas G12V
KRas G12V, sequence (P01116 1-169 isoform P01116-2 G12V): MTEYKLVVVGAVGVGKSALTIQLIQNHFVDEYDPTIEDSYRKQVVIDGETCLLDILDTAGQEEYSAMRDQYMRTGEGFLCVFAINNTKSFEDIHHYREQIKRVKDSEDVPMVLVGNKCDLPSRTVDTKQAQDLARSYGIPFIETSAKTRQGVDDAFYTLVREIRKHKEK

KRas Q61H, sequence (P01116 1-169 isoform P01116-2 Q61H): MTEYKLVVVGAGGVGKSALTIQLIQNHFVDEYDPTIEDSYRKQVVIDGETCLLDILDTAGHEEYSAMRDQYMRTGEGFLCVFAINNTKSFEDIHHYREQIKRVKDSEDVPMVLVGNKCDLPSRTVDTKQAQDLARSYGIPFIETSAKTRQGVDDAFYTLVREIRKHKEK
KRas G12A, sequence (P01116 1-169 isoform P01116-2 G12A): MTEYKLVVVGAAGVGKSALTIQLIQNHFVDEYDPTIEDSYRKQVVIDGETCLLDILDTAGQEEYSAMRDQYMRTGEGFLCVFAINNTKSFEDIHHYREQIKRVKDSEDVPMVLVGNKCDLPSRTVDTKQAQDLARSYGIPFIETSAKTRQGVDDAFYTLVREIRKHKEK

Compound	IC50 [1] [nM]	IC50 [2] [nM]	IC50 [3] [nM]	IC50 [4] [nM]	IC50 [5] [nM]	IC50 [6] [nM]	IC50 [7] [nM]	IC50 [8] [nM]
CCc1cccc2cccc(N3CCc4c(nc(OCC5(CN(C)C)CC5)nc4N4CCN(C(=O)c5c[nH]c(=O)[nH]5)CC4)C3)c12 [Example 536, 4-(4-(2-((1-((dimethylamino)methyl)cyclopropyl)methoxy)-7-(8-ethylnaphthalen-1-yl)-5,6,7,8-tetrahydropyrido[3,4-d]pyrimidin-4-yl)piperazine-1-carbonyl)-1,3-dihydro-2H-imidazol-2-one]	4690	2170	3080	7720	3050	7950	4650	3020
CCc1cccc2cccc(N3CCc4c(nc(OCC5(CN(C)C)CC5)nc4N4CC(CO)OC(C(F)(F)F)C4)C3)c12 (stereo not drawn) [Example 540, (4-(2-((1-((dimethylamino)methyl)cyclopropyl)methoxy)-7-(8-ethylnaphthalen-1-yl)-5,6,7,8-tetrahydropyrido[3,4-d]pyrimidin-4-yl)-6-(trifluoromethyl)morpholin-2-yl)methanol]	3280	7730	8850	3750	5810	9350	1840	1720
CCc1cccc2cccc(N3CCc4c(nc(OCC5(CN(C)C)CC5)nc4NC4CCCc5[nH]ncc54)C3)c12 (stereo not drawn) [Example 542, 2-((1-((dimethylamino)methyl)cyclopropyl)methoxy)-7-(8-ethylnaphthalen-1-yl)-N-(4,5,6,7-tetrahydro-1H-indazol-4-yl)-5,6,7,8-tetrahydropyrido[3,4-d]pyrimidin-4-amine]	5740	18300	15800	5830	10400	11600	2890	5370
CCc1cccc2cccc(N3CCc4c(nc(OCC5(CN(C)C)CC5)nc4N4CCOC(C(F)F)CC4)C3)c12 (stereo not drawn) [Example 544, 1-(1-(((4-(7-(difluoromethyl)-1,4-oxazepan-4-yl)-7-(8-ethylnaphthalen-1-yl)-5,6,7,8-tetrahydropyrido[3,4-d]pyrimidin-2-yl)oxy)methyl)cyclopropyl)-N,N-dimethylmethanamine]	291	121	112	204	327	21100	180	14500
CCc1cccc2cccc(N3CCc4c(nc(OCC5(CN(C)C)CC5)nc4N4CCCC(c5n[nH]cc5NC(C)=O)C4)C3)c12 (stereo not drawn) [Example 545, N-(3-(1-(2-((1-((dimethylamino)methyl)cyclopropyl)methoxy)-7-(8-ethylnaphthalen-1-yl)-5,6,7,8-tetrahydropyrido[3,4-d]pyrimidin-4-yl)piperidin-3-yl)-1H-pyrazol-4-yl)acetamide]	4750	5900	8090	5000	7230	13100	4780	6080
CCc1cccc2cccc(N3CCc4c(nc(OCC5(CN(C)C)CC5)nc4N4CCOC(CNC(=O)NC)C4)C3)c12 (stereo not drawn) [Example 546, 1-((4-(2-((1-((dimethylamino)methyl)cyclopropyl)methoxy)-7-(8-ethylnaphthalen-1-yl)-5,6,7,8-tetrahydropyrido[3,4-d]pyrimidin-4-yl)morpholin-2-yl)methyl)-3-methylurea]	3800	3310	4620	3570	2640	13600	2630	4640

The remaining lines, values ahead:

IC50 [1] [nM]	IC50 [2] [nM]	IC50 [3] [nM]	IC50 [4] [nM]	IC50 [5] [nM]	IC50 [6] [nM]	IC50 [7] [nM]	IC50 [8] [nM]	Compound
43500	> 100000	> 100000	5660	26700	8520	3700	3180	CCc1cccc2cccc(N3CCc4c(nc(OCC5(CN(C)C)CC5)nc4N(C)Cc4nnnn4C)C3)c12 [Example 537, 2-((1-((dimethylamino)methyl)cyclopropyl)methoxy)-7-(8-ethylnaphthalen-1-yl)-N-methyl-N-((1-methyl-1H-tetrazol-5-yl)methyl)-5,6,7,8-tetrahydropyrido[3,4-d]pyrimidin-4-amine]
2530	4350	4360	2780	3000	9040	1330	1860	CCc1cccc2cccc(N3CCc4c(nc(OCC5(CN(C)C)CC5)nc4N(C)Cc4nnc5n4CCOC5)C3)c12 [Example 538, N-((5,6-dihydro-8H-[1,2,4]triazolo[3,4-c][1,4]oxazin-3-yl)methyl)-2-((1-((dimethylamino)methyl)cyclopropyl)methoxy)-7-(8-ethylnaphthalen-1-yl)-N-methyl-5,6,7,8-tetrahydropyrido[3,4-d]pyrimidin-4-amine]
17100	41300	42200	20700	19900	9320	8970	5880	CCc1cccc2cccc(N3CCc4c(nc(OCC5(CN(C)C)CC5)nc4NCc4cc(CO)[nH]n4)C3)c12 [Example 539, (3-(((2-((1-((dimethylamino)methyl)cyclopropyl)methoxy)-7-(8-ethylnaphthalen-1-yl)-5,6,7,8-tetrahydropyrido[3,4-d]pyrimidin-4-yl)amino)methyl)-1H-pyrazol-5-yl)methanol]
259	298	200	169	256	10000	165	5980	CCc1cccc2cccc(N3CCc4c(nc(OCC5(CN(C)C)CC5)nc4NCc4ccnn4C4CC4(F)F)C3)c12 (stereo not drawn) [Example 541, N-((1-(2,2-difluorocyclopropyl)-1H-pyrazol-5-yl)methyl)-2-((1-((dimethylamino)methyl)cyclopropyl)methoxy)-7-(8-ethylnaphthalen-1-yl)-5,6,7,8-tetrahydropyrido[3,4-d]pyrimidin-4-amine]
1200	2400	2270	750	1500	12100	634	3940	CCc1cccc2cccc(N3CCc4c(nc(OCC5(CN(C)C)CC5)nc4N4CCC(F)C(OC)C4)C3)c12 (stereo not drawn) [Example 543, 1-(1-(((7-(8-ethylnaphthalen-1-yl)-4-(4-fluoro-3-methoxypiperidin-1-yl)-5,6,7,8-tetrahydropyrido[3,4-d]pyrimidin-2-yl)oxy)methyl)cyclopropyl)-N,N-dimethylmethanamine]
798	784	680	707	667	15900	622	2320	CCc1cccc2cccc(N3CCc4c(nc(OCC5(CN(C)C)CC5)nc4NCCC4CC(C)(C)NC4=O)C3)c12 (stereo not drawn) [Example 547, 3-(2-((2-((1-((dimethylamino)methyl)cyclopropyl)methoxy)-7-(8-ethylnaphthalen-1-yl)-5,6,7,8-tetrahydropyrido[3,4-d]pyrimidin-4-yl)amino)ethyl)-5,5-dimethylpyrrolidin-2-one]
